Laboratory results: patent US20050170485A1, “Culture having phenol oxidase-like activity” (priority 2002, published 2005)
Values belong to the molecule of their own block, whether it stands above or below them.

Columns and labels:
Assay type in all cases: biochemical
[1] = test system: culture of Flammulina velutipes strain IFO 30601; experiment: Substrate specificity of the culture (phenol oxidase-like activity, Table 1); conditions: pH 7.0; determined wavelength per substrate (Table 1)
[2] = test system: culture of Flammulina velutipes strain IFO 30601; experiment: Oxidative coupling reaction with 4-aminoantipyrine by the culture; conditions: for activity of the culture for the substrate in words, oxidative coupling reaction: pH 7.0; for Specific Activity, Culture (oxidative coupling with 4-aminoantipyrine): reaction pH 7.0, 25° C., substrate 2.0 mM
Protocol: Next, the oxidative coupling reaction of the culture obtained in (2) in Example 1 mentioned above was determined by using color development as an index by the oxidative condensation of the substrate (hydrogen donor) with 4-aminoantipyrine, catalyzed by the culture of the present invention.
As the hydrogen donors, there were used phenolic compounds (phenol, 2-methoxyphenol, 2,6-dimethoxyphenol, catechol, resorcinol, hydroquinone, pyrogallol, gallic acid, propyl gallate, 1-naphthol, catechin), aminophenolic compounds (o-aminophenol, m-aminophenol, p-aminophenol), diaminophenolic compounds (o-phenylenediamine, m-phenylenediamine, p-phenylenediamine), and heterocyclic compounds (5-hydroxyindole, 2,6-diaminopyridine).
The above-mentioned culture solution was added to a reaction system containing 4-aminoantipyrine and an optional hydrogen donor. Thereafter, the activity of the culture of the present invention was assayed by determining a change in absorbance at 490 nm for the phenolic compound, the diaminophenolic compound and the heterocyclic compound, or determining a change in absorbance at 450 nm for the aminophenolic compound. As to a substrate hardly soluble in water, there was used one obtained by dissolving the substrate in a small amount of dimethyl sulfoxide and diluting the resulting solution with deionized water to a desired concentration. In Table 4, DMSO is an abbreviation for dimethyl sulfoxide.
(§1) Concretely, 190 μl of 105.3 mM phosphate buffer (pH 7.0) containing 0.4 μmol of a substrate and 4.0 μmol of 4-aminoantipyrine was pre-incubated in wells of a 96-well microplate [manufactured by Corning, Costor (registered trademark) 3368] at 25° C. for 1 minute. Next, 10 μl of the above-mentioned culture solution was added to the resulting mixture, and thereafter, the mixture was incubated for 1 hour. A change in absorbance at 490 nm or 450 nm was determined for the resulting product. One unit (U) of the activity regarding the oxidative coupling reaction was defined as an amount for increasing the absorbance by 1 per one minute.

[3] = target: T1, bilirubin oxidase from the strain of the genus Myrothecium (Albifimbria verrucaria, UniProt Q12737); experiment: Oxidative coupling reaction with 4-aminoantipyrine by bilirubin oxidase (comparison); conditions: reaction pH 8.0, substrate 2.0 mM
T1 sequence (Q12737 39-572): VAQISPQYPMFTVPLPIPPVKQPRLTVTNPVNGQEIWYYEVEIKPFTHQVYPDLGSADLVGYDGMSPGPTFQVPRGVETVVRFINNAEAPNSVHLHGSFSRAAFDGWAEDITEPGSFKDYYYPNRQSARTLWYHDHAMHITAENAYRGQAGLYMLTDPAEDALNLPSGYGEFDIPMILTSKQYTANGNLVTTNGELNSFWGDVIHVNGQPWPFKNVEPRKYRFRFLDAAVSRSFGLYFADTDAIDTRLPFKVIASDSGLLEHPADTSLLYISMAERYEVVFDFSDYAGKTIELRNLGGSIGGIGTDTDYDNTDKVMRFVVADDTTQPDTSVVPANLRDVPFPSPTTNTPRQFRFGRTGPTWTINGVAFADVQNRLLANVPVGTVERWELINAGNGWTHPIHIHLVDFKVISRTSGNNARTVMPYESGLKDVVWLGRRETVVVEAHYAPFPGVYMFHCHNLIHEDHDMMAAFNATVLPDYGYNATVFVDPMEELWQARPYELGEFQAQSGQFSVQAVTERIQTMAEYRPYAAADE
Protocol: as §1
In addition, for the comparison, the examination was made in the same manner for bilirubin oxidase from the strain of the genus Myrothecium except that the above-mentioned buffer was replaced with 105.3 mM Tris-HCl buffer (pH 8.0).

[4] = test system: culture of Flammulina velutipes strain IFO 30601; experiment: Direct oxidation reaction by the culture; conditions: for activity of the culture for the substrate in words, direct oxidation reaction: pH 7.0; for activity of the culture compared with bilirubin oxidase from the genus Myrothecium, direct oxidation / activity of the culture compared with laccase from Japanese lacquer, direct oxidation: pH 7.0, relative activities of Table 7; for Relative Activity, Culture (direct oxidation): reaction pH 7.0, 2-chloro 1,4-phenylenediamine = 100
Protocol: Further, the direct oxidation reaction of the culture obtained in the above-mentioned example was determined by using color development due to oxidative polymerization of a substrate generated by the direct action of the culture of the present invention on the substrate as an index.
As the substrates, there were used diaminophenolic compounds (2-chloro 1,4-phenylenediamine, p-phenylenediamine, 2,5-diaminotoluene, N-phenyl-p-phenylenediamine, toluylene-3,4-diamine, m-phenylenediamine), aminophenolic compounds (o-aminophenol, m-aminophenol, 5-amino-o-cresol, p-aminophenol, p-methylaminophenol), and phenolic compounds (2,6-dimethoxyphenol, catechol, resorcinol, hydroquinone, pyrogallol, gallic acid, propyl gallate, 1-naphthol, […], 2,3,4-trihydroxybenzophenone, 2,3,4,4-tetrahydroxybenzophenone). As to a substrate hardly soluble in water, there was used one obtained by dissolving the substrate in a small amount of dimethyl sulfoxide and diluting the resulting solution with deionized distilled water to a desired concentration. In Table 6, %” indicates volume/volume %.
(§2) Concretely, 180 μl of 0.89 mM sodium phosphate buffer (pH 7.0) containing […] substrate was pre-incubated in wells of a 96-well microplate [manufactured by Corning, Costor (registered trademark) 3368] at 25° C. for 1 minute. Next, 20 μl of the above-mentioned culture solution was added to the resulting mixture. A change in absorbance at 490 nm, 450 nm or 405 nm was determined for the resulting product, depending on the substrate. Here, 1 U (unit) of the activity regarding the direct oxidative reaction was defined as an amount for increasing the absorbance by 1 per one minute.

[5] = test system: laccase from Japanese lacquer; experiment: Direct oxidation reaction by laccase (comparison); conditions: reaction pH 7.0; 2-chloro 1,4-phenylenediamine = 100
Protocol: Next, 20 μl of the above-mentioned culture solution was added to the resulting mixture. A change in absorbance at 490 nm, 450 nm or 405 nm was determined for the resulting product, depending on the substrate. Here, 1 U (unit) of the activity regarding the direct oxidative reaction was defined as an amount for increasing the absorbance by 1 per one minute.
(§3) In addition, for the comparison, the substrate specificities at pH 7.0 for laccase from Japanese lacquer and bilirubin oxidase from the strain belonging to the genus Myrothecium were also examined in the same manner.

[6] = target: T2, bilirubin oxidase from the strain belonging to the genus Myrothecium (Albifimbria verrucaria, UniProt Q12737); experiment: Direct oxidation reaction by bilirubin oxidase (comparison); set-up: concentration or dose not given beside the values; conditions: reaction pH 7.0; 2-chloro 1,4-phenylenediamine = 100
T2 sequence (Q12737 39-572): T1 sequence (Q12737 39-572)
Protocol: as §2, §3
The relative activity (%) for each substrate is shown in Table 7, in which the measured value for a case where a representative chemical dye 2-chloro 1,4-phenylenediamine was used as a substrate is 100.

- U (activity of the culture on the substrate) [1]: 0.683 U
SMILES: CCn1c(=NN=c2sc3cc(S(=O)(=O)O)ccc3n2CC)sc2cc(S(=O)(=O)O)ccc21 [ABTS]

SMILES: COc1ccccc1O [2-Methoxyphenol]
- U (activity of the culture on the substrate) [1]: 0.117 U
- activity of the culture for the substrate in words, oxidative coupling reaction [2]: especially high activity
- Specific Activity, Culture (oxidative coupling with 4-aminoantipyrine) [2]: 14.5 U/mg Protein
- Specific Activity, Bilirubin Oxidase from Strain Belonging to Genus Myrothecium (oxidative coupling with 4-aminoantipyrine) [3]: 2.5 U/mg Protein

- U (activity of the culture on the substrate) [1]: 0.018 U
SMILES: N[C@@H](Cc1ccc(O)cc1)C(=O)O [L-Tyrosine]

SMILES: Nc1ccccc1O [o-Aminophenol]
- U (activity of the culture on the substrate) [1]: 0.262 U
- activity of the culture for the substrate in words, oxidative coupling reaction [2]: especially high activity
- Specific Activity, Culture (oxidative coupling with 4-aminoantipyrine) [2]: 22.4 U/mg Protein
- Specific Activity, Bilirubin Oxidase from Strain Belonging to Genus Myrothecium (oxidative coupling with 4-aminoantipyrine) [3]: 15.1 U/mg Protein
- activity of the culture for the substrate in words, direct oxidation reaction [4]: especially high activity
- activity of the culture compared with bilirubin oxidase from the genus Myrothecium, direct oxidation [4]: even higher activity
- activity of the culture compared with laccase from Japanese lacquer, direct oxidation [4]: even higher activity
- Relative Activity, Culture (direct oxidation) [4]: 650%
- Relative Activity, Laccase from Japanese Lacquer (direct oxidation) [5]: 103%
- Relative Activity, Bilirubin Oxidase from Strain Belonging to Genus Myrothecium (direct oxidation) [6]: 86%

SMILES: COc1cccc(OC)c1O [2,6-Dimethoxyphenol]
- U (activity of the culture on the substrate) [1]: 0.830 U
- activity of the culture for the substrate in words, oxidative coupling reaction [2]: especially high activity
- Specific Activity, Culture (oxidative coupling with 4-aminoantipyrine) [2]: 18.1 U/mg Protein
- Specific Activity, Bilirubin Oxidase from Strain Belonging to Genus Myrothecium (oxidative coupling with 4-aminoantipyrine) [3]: 12.0 U/mg Protein
- activity of the culture for the substrate in words, direct oxidation reaction [4]: high activity
- activity of the culture compared with bilirubin oxidase from the genus Myrothecium, direct oxidation [4]: even higher activity
- activity of the culture compared with laccase from Japanese lacquer, direct oxidation [4]: even higher activity
- Relative Activity, Culture (direct oxidation) [4]: 250%
- Relative Activity, Laccase from Japanese Lacquer (direct oxidation) [5]: 21%
- Relative Activity, Bilirubin Oxidase from Strain Belonging to Genus Myrothecium (direct oxidation) [6]: 69%

SMILES: Nc1ccc(N)cc1 [p-Phenylenediamine]
- U (activity of the culture on the substrate) [1]: 0.101 U
- Specific Activity, Culture (oxidative coupling with 4-aminoantipyrine) [2]: 20.9 U/mg Protein
- Specific Activity, Bilirubin Oxidase from Strain Belonging to Genus Myrothecium (oxidative coupling with 4-aminoantipyrine) [3]: 11.1 U/mg Protein
- activity of the culture for the substrate in words, direct oxidation reaction [4]: especially high activity
- activity of the culture compared with bilirubin oxidase from the genus Myrothecium, direct oxidation [4]: higher activity
- activity of the culture compared with laccase from Japanese lacquer, direct oxidation [4]: higher activity
- Relative Activity, Culture (direct oxidation) [4]: 388%
- Relative Activity, Laccase from Japanese Lacquer (direct oxidation) [5]: 142%
- Relative Activity, Bilirubin Oxidase from Strain Belonging to Genus Myrothecium (direct oxidation) [6]: 82%

- U (activity of the culture on the substrate) [1]: 0.141 U
SMILES: COc1cc(/C=N/N=C/c2cc(OC)c(O)c(OC)c2)cc(OC)c1O [Syringaldazine]

- U (activity of the culture on the substrate) [1]: 0.078 U
SMILES: Oc1cccc2[nH]ccc12 [4-Hydroxyindole]

SMILES: Oc1ccccc1O [Catechol]
- U (activity of the culture on the substrate) [1]: 0.029 U
- activity of the culture for the substrate in words, oxidative coupling reaction [2]: especially high activity
- Specific Activity, Culture (oxidative coupling with 4-aminoantipyrine) [2]: 23.3 U/mg Protein
- Specific Activity, Bilirubin Oxidase from Strain Belonging to Genus Myrothecium (oxidative coupling with 4-aminoantipyrine) [3]: 16.0 U/mg Protein
- activity of the culture compared with bilirubin oxidase from the genus Myrothecium, direct oxidation [4]: higher activity
- activity of the culture compared with laccase from Japanese lacquer, direct oxidation [4]: even higher activity
- Relative Activity, Culture (direct oxidation) [4]: 21%
- Relative Activity, Laccase from Japanese Lacquer (direct oxidation) [5]: 2%
- Relative Activity, Bilirubin Oxidase from Strain Belonging to Genus Myrothecium (direct oxidation) [6]: 5%

SMILES: O=C(O)c1cc(O)c(O)c(O)c1 [Gallic acid]
- Specific Activity, Culture (oxidative coupling with 4-aminoantipyrine) [2]: 0.9 U/mg Protein
- Specific Activity, Bilirubin Oxidase from Strain Belonging to Genus Myrothecium (oxidative coupling with 4-aminoantipyrine) [3]: 14.9 U/mg Protein
- activity of the culture compared with laccase from Japanese lacquer, direct oxidation [4]: even higher activity
- Relative Activity, Culture (direct oxidation) [4]: 65%
- Relative Activity, Laccase from Japanese Lacquer (direct oxidation) [5]: 9%
- Relative Activity, Bilirubin Oxidase from Strain Belonging to Genus Myrothecium (direct oxidation) [6]: 88%

SMILES: Oc1cccc(O)c1 [Resorcinol]
- Specific Activity, Culture (oxidative coupling with 4-aminoantipyrine) [2]: 5.7 U/mg Protein
- Specific Activity, Bilirubin Oxidase from Strain Belonging to Genus Myrothecium (oxidative coupling with 4-aminoantipyrine) [3]: 25.6 U/mg Protein
- activity of the culture compared with laccase from Japanese lacquer, direct oxidation [4]: higher activity
- Relative Activity, Culture (direct oxidation) [4]: 75%
- Relative Activity, Laccase from Japanese Lacquer (direct oxidation) [5]: 25%
- Relative Activity, Bilirubin Oxidase from Strain Belonging to Genus Myrothecium (direct oxidation) [6]: 91%

SMILES: Nc1cccc(N)c1 [m-Phenylenediamine]
- Specific Activity, Culture (oxidative coupling with 4-aminoantipyrine) [2]: 29.7 U/mg Protein
- Specific Activity, Bilirubin Oxidase from Strain Belonging to Genus Myrothecium (oxidative coupling with 4-aminoantipyrine) [3]: 1.7 U/mg Protein
- activity of the culture compared with laccase from Japanese lacquer, direct oxidation [4]: even higher activity
- Relative Activity, Culture (direct oxidation) [4]: 26%
- Relative Activity, Laccase from Japanese Lacquer (direct oxidation) [5]: 4%
- Relative Activity, Bilirubin Oxidase from Strain Belonging to Genus Myrothecium (direct oxidation) [6]: 14%

SMILES: Oc1cccc2ccccc12 [1-Naphthol]
- activity of the culture for the substrate in words, oxidative coupling reaction [2]: especially high activity
- Specific Activity, Culture (oxidative coupling with 4-aminoantipyrine) [2]: 18.1 U/mg Protein
- Specific Activity, Bilirubin Oxidase from Strain Belonging to Genus Myrothecium (oxidative coupling with 4-aminoantipyrine) [3]: 33.0 U/mg Protein
- activity of the culture compared with bilirubin oxidase from the genus Myrothecium, direct oxidation [4]: even higher activity
- Relative Activity, Culture (direct oxidation) [4]: 17%
- Relative Activity, Laccase from Japanese Lacquer (direct oxidation) [5]: 17%
- Relative Activity, Bilirubin Oxidase from Strain Belonging to Genus Myrothecium (direct oxidation) [6]: 50%

SMILES: Oc1ccc(O)cc1 [Hydroquinone]
- Specific Activity, Culture (oxidative coupling with 4-aminoantipyrine) [2]: 2.1 U/mg Protein
- Specific Activity, Bilirubin Oxidase from Strain Belonging to Genus Myrothecium (oxidative coupling with 4-aminoantipyrine) [3]: 0.5 U/mg Protein
- activity of the culture compared with bilirubin oxidase from the genus Myrothecium, direct oxidation [4]: even higher activity
- activity of the culture compared with laccase from Japanese lacquer, direct oxidation [4]: even higher activity
- Relative Activity, Culture (direct oxidation) [4]: 20%
- Relative Activity, Laccase from Japanese Lacquer (direct oxidation) [5]: 2%
- Relative Activity, Bilirubin Oxidase from Strain Belonging to Genus Myrothecium (direct oxidation) [6]: 4%
